Results published in patent publication US7491501B2, “Methods for identifying modulators of intracellular aggregate formation” (Auburn University, priority 2003, dated 2009).

Test system: 26S proteasome
Test: In vitro deubiquitination assay of K63 polyubiquitinated tau with 26S proteasome
Format: biochemical
Conditions: Ub-H 1 or 10 μM, 26S proteasome 40 or 80 nM, 2 h 37° C.
Method: In Vitro Ubiquitination and Deubiquitination Assay—His-tagged tau construct was expressed in HEK 293 cells by calcium phosphate method. The cells were collected, washed with PBS and lysed with SDS lysis buffer. The lysate was immunoprecipitated with tau antibody and bound to secondary antibody coupled with agarose beads. Fifty microliters of the reaction buffer (50 mM Tris pH 7.5, 2.5 mM MgCl2, 2 mM DTT, 2 mM ATP) containing 100 ng El, 200 ng UbcH7 (E2), 100 μg TRAF6 (E3) and 5 μg of GST-WT Ub, or its mutants K29R, K48R, and K63R Ub was added to the immunoprecipitated tau. The beads were incubated at 37° C. for 2 h by continuous shaking, then washed three times with reaction buffer. The proteins were released by boiling for 2 min in SDS-PAGE sample buffer, electrophoresed on 7.5% SDS-PAGE and western blotted with antibody to ubiquitin and tau. For the in vitro deubiquitination assay, the ubiquitinated tau was treated with 26S proteasome (40 or 80 nM) in 30 μl of buffer containing 50 mM Tris-HCl, pH 7.5, 2 mM MgCl2, 2 mM ATP for 2 h at 37° C. The deubiquitination of tau by the 26S proteasome was blocked by the addition of ubiquitin aldehyde (Ub-H), an inhibitor of ubiquitin isopeptidases (1 or 10 μM). The samples were boiled in sample buffer, resolved by 7.5% SDS-PAGE and western blotted with anti-ubiquitin or anti-tau. […]

For ubiquitin aldehyde [Ub-H], the “polyubiquitin degradation (deubiquitination of tau) by 26S proteasome” value was “inhibited”.
